From patent publication US9707229B2, “Compositions and methods for treating an infection” (CMPD LICENSING, LLC, priority 2015, dated 2017)

Key:
Type in all cases: cell-based
[1] = tested on: Bacteroides fragilis; assay: Expected efficacy of antibiotic agents; conditions: Gram: anaer
[2] = tested on: Chlamydia pneumoniae; assay: Expected efficacy of antibiotic agents; conditions: Gram: n/a
[3] = tested on: Bartonella bacilliformis; assay: Expected efficacy of antibiotic agents; conditions: Gram: neg
[4] = tested on: Campylobacter jejuni; assay: Expected efficacy of antibiotic agents; conditions: Gram: neg
[5] = tested on: Citrobacter diversus; assay: Expected efficacy of antibiotic agents; conditions: Gram: neg
[6] = tested on: Citrobacter freundii; assay: Expected efficacy of antibiotic agents; conditions: Gram: neg
[7] = tested on: Enterobacter aerogenes; assay: Expected efficacy of antibiotic agents; conditions: Gram: neg
[8] = tested on: Escherichia coli; assay: Expected efficacy of antibiotic agents; conditions: Gram: neg
[9] = tested on: Francisella tularensis; conditions: expected efficacy; Gram: neg
[10] = tested on: Haemophilus influenzae; assay: Expected efficacy of antibiotic agents; conditions: Gram: neg
[11] = tested on: Haemophilus parainfluenzae; assay: Expected efficacy of antibiotic agents; conditions: Gram: neg
[12] = tested on: Klebsiella oxytoca; assay: Expected efficacy of antibiotic agents; conditions: Gram: neg
[13] = tested on: Klebsiella pneumoniae; assay: Expected efficacy of antibiotic agents; conditions: Gram: neg
[14] = tested on: Legionella pneumophila; conditions: expected efficacy; Gram: neg
[15] = tested on: Moraxella catarrhalis; assay: Expected efficacy of antibiotic agents; conditions: Gram: neg
[16] = tested on: Morganella morganii; assay: Expected efficacy of antibiotic agents; conditions: Gram: neg
[17] = tested on: Neisseria gonorrhoeae; assay: Expected efficacy of antibiotic agents; conditions: Gram: neg
[18] = tested on: Neisseria meningitidis; assay: Expected efficacy of antibiotic agents; conditions: Gram: neg
[19] = tested on: Proteus mirabilis; assay: Expected efficacy of antibiotic agents; conditions: Gram: neg
[20] = tested on: Proteus vulgaris; assay: Expected efficacy of antibiotic agents; conditions: Gram: neg
[21] = tested on: Providencia rettgeri; assay: Expected efficacy of antibiotic agents; conditions: Gram: neg
[22] = tested on: Providencia stuartii; assay: Expected efficacy of antibiotic agents; conditions: Gram: neg
[23] = tested on: Pseudomonas aeruginosa; assay: Expected efficacy of antibiotic agents; conditions: Gram: neg
[24] = tested on: Pseudomonas fluorescens; assay: Expected efficacy of antibiotic agents; conditions: Gram: neg
[25] = tested on: Rickettsiae; conditions: expected efficacy; Gram: neg
[26] = tested on: Salmonella typhi; assay: Expected efficacy of antibiotic agents; conditions: Gram: neg
[27] = tested on: Serratia marcescens; assay: Expected efficacy of antibiotic agents; conditions: Gram: neg
[28] = tested on: Shigella boydii; assay: Expected efficacy of antibiotic agents; conditions: Gram: neg
[29] = tested on: Shigella dysenteriae; assay: Expected efficacy of antibiotic agents; conditions: Gram: neg
[30] = tested on: Shigella flexneri; assay: Expected efficacy of antibiotic agents; conditions: Gram: neg
[31] = tested on: Shigella sonnei; assay: Expected efficacy of antibiotic agents; conditions: Gram: neg
[32] = tested on: Vibrio cholerae; assay: Expected efficacy of antibiotic agents; conditions: Gram: neg
[33] = tested on: Yersinia pestis; conditions: expected efficacy; Gram: neg
[34] = tested on: Corynebacterium jeikeium; assay: Expected efficacy of antibiotic agents; conditions: Gram: pos
[35] = tested on: Enterococcus faecium; assay: Expected efficacy of antibiotic agents; conditions: Gram: pos
[36] = tested on: Methicillin resistant staph aureus (MRSA); assay: Expected efficacy of antibiotic agents; conditions: Gram: pos
[37] = tested on: Staphylococcus epidermidis; assay: Expected efficacy of antibiotic agents; conditions: Gram: pos
[38] = tested on: Clostridium difficile; assay: Expected efficacy of antibiotic agents; conditions: Gram: anaer
[39] = tested on: Clostridium perfringens; conditions: expected efficacy; Gram: anaer
[40] = tested on: Chlamydia psittaci; conditions: expected efficacy; Gram: n/a
[41] = tested on: Chlamydia trachomatis; assay: Expected efficacy of antibiotic agents; conditions: Gram: n/a
[42] = tested on: Mycoplasma pneumoniae; assay: Expected efficacy of antibiotic agents; conditions: Gram: n/a
[43] = tested on: Acinetobacter baumannii; assay: Expected efficacy of antibiotic agents; conditions: Gram: neg
[44] = tested on: Acinetobacter calcoaceticus; assay: Expected efficacy of antibiotic agents; conditions: Gram: neg
[45] = tested on: Acinetobacter lwoffii; assay: Expected efficacy of antibiotic agents; conditions: Gram: neg
[46] = tested on: Bordetella pertussis; assay: Expected efficacy of antibiotic agents; conditions: Gram: neg
[47] = tested on: Brucella species; conditions: expected efficacy; Gram: neg
[48] = tested on: Enterobacter cloacae; assay: Expected efficacy of antibiotic agents; conditions: Gram: neg
[49] = tested on: Enterobacter sakazakii; assay: Expected efficacy of antibiotic agents; conditions: Gram: neg
[50] = tested on: Klebsiella (Calymmatobacterium) granulomatis; assay: Expected efficacy of antibiotic agents; conditions: Gram: neg
[51] = tested on: Enterococcus faecalis; assay: Expected efficacy of antibiotic agents; conditions: Gram: pos
[52] = tested on: Staphylococcus aureus (MSSA); assay: Expected efficacy of antibiotic agents; conditions: Gram: pos
[53] = tested on: Streptococcus agalactiae; assay: Expected efficacy of antibiotic agents; conditions: Gram: pos
[54] = tested on: Streptococcus pneumoniae; assay: Expected efficacy of antibiotic agents; conditions: Gram: pos
[55] = tested on: Streptococcus pyogenes; assay: Expected efficacy of antibiotic agents; conditions: Gram: pos

## O=C(O)c1cn(C2CC2)c2cc(N3CCNCC3)c(F)cc2c1=O [Ciprofloxacin]
[1]
  efficacy against Bacteroides fragilis: no
[2]
  efficacy against Chlamydia pneumoniae: yes
[3]
  efficacy against Bartonella bacilliformis: yes
[4]
  efficacy against Campylobacter jejuni: yes
[5]
  efficacy against Citrobacter diversus: yes
[6]
  efficacy against Citrobacter freundii: yes
[7]
  efficacy against Enterobacter aerogenes: yes
[8]
  efficacy against Escherichia coli: yes
[9]
  efficacy against Francisella tularensis: yes
[10]
  efficacy against Haemophilus influenzae: yes
[11]
  efficacy against Haemophilus parainfluenzae: yes
[12]
  efficacy against Klebsiella oxytoca: yes
[13]
  efficacy against Klebsiella pneumoniae: yes
[14]
  efficacy against Legionella pneumophila: yes
[15]
  efficacy against Moraxella catarrhalis: yes
[16]
  efficacy against Morganella morganii: yes
[17]
  efficacy against Neisseria gonorrhoeae: yes
[18]
  efficacy against Neisseria meningitidis: yes
[19]
  efficacy against Proteus mirabilis: yes
[20]
  efficacy against Proteus vulgaris: yes
[21]
  efficacy against Providencia rettgeri: yes
[22]
  efficacy against Providencia stuartii: yes
[23]
  efficacy against Pseudomonas aeruginosa: yes
[24]
  efficacy against Pseudomonas fluorescens: yes
[25]
  efficacy against Rickettsiae: yes
[26]
  efficacy against Salmonella typhi: yes
[27]
  efficacy against Serratia marcescens: yes
[28]
  efficacy against Shigella boydii: yes
[29]
  efficacy against Shigella dysenteriae: yes
[30]
  efficacy against Shigella flexneri: yes
[31]
  efficacy against Shigella sonnei: yes
[32]
  efficacy against Vibrio cholerae: yes
[33]
  efficacy against Yersinia pestis: yes
[34]
  efficacy against Corynebacterium jeikeium: no
[35]
  efficacy against Enterococcus faecium: no
[36]
  efficacy against Methicillin resistant staph aureus (MRSA): no
[37]
  efficacy against Staphylococcus epidermidis: yes

## CC[C@H]1OC(=O)[C@H](C)[C@@H](O[C@H]2C[C@@](C)(OC)[C@@H](O)[C@H](C)O2)[C@H](C)[C@@H](O[C@@H]2O[C@H](C)C[C@H](N(C)C)[C@H]2O)[C@](C)(O)C[C@@H](C)CN(C)[C@H](C)[C@@H](O)[C@]1(C)O [Azithromycin]
[1]
  efficacy against Bacteroides fragilis: no
[38]
  efficacy against Clostridium difficile: no
[39]
  efficacy against Clostridium perfringens: no
[2]
  efficacy against Chlamydia pneumoniae: yes
[40]
  efficacy against Chlamydia psittaci: yes
[41]
  efficacy against Chlamydia trachomatis: yes
[42]
  efficacy against Mycoplasma pneumoniae: yes
[43]
  efficacy against Acinetobacter baumannii: no
[44]
  efficacy against Acinetobacter calcoaceticus: no
[45]
  efficacy against Acinetobacter lwoffii: no
[3]
  efficacy against Bartonella bacilliformis: yes
[46]
  efficacy against Bordetella pertussis: yes
[47]
  efficacy against Brucella species: no
[4]
  efficacy against Campylobacter jejuni: yes
[5]
  efficacy against Citrobacter diversus: no
[6]
  efficacy against Citrobacter freundii: no
[7]
  efficacy against Enterobacter aerogenes: no
[48]
  efficacy against Enterobacter cloacae: no
[49]
  efficacy against Enterobacter sakazakii: no
[8]
  efficacy against Escherichia coli: no
[9]
  efficacy against Francisella tularensis: no
[10]
  efficacy against Haemophilus influenzae: yes
[50]
  efficacy against Klebsiella (Calymmatobacterium) granulomatis: no
[12]
  efficacy against Klebsiella oxytoca: no
[13]
  efficacy against Klebsiella pneumoniae: no
[14]
  efficacy against Legionella pneumophila: yes
[15]
  efficacy against Moraxella catarrhalis: yes
[16]
  efficacy against Morganella morganii: no
[18]
  efficacy against Neisseria meningitidis: yes
[19]
  efficacy against Proteus mirabilis: no
[20]
  efficacy against Proteus vulgaris: no
[21]
  efficacy against Providencia rettgeri: no
[22]
  efficacy against Providencia stuartii: no
[23]
  efficacy against Pseudomonas aeruginosa: no
[24]
  efficacy against Pseudomonas fluorescens: no
[25]
  efficacy against Rickettsiae: yes
[27]
  efficacy against Serratia marcescens: no
[32]
  efficacy against Vibrio cholerae: yes
[34]
  efficacy against Corynebacterium jeikeium: no
[51]
  efficacy against Enterococcus faecalis: no
[35]
  efficacy against Enterococcus faecium: no
[36]
  efficacy against Methicillin resistant staph aureus (MRSA): no
[52]
  efficacy against Staphylococcus aureus (MSSA): yes
[37]
  efficacy against Staphylococcus epidermidis: yes
[53]
  efficacy against Streptococcus agalactiae: yes
[54]
  efficacy against Streptococcus pneumoniae: yes
[55]
  efficacy against Streptococcus pyogenes: yes
